Source: the NIST ThermoML archive (doi:10.1021/je500936y)
Numbers after ± are expanded uncertainties.

Experiments:
[1] = 100 kPa, Liquid; for speed of sound: Frequency=3 MHz, Sing-around technique in a fixed-path interferometer; for mass density: Vibrating tube method
[2] = refractive index (Na D-line) (dimensionless); conditions: 100 kPa, Liquid, Standard Abbe refractometry
[3] = xn = mol fraction of the nth substance listed; conditions: 100 kPa, Liquid, x1 = 1; for speed of sound: Frequency=3 MHz, Sing-around technique in a fixed-path interferometer; for mass density: Vibrating tube method
[4] = refractive index (Na D-line) (dimensionless); xn = mol fraction of the nth substance listed; conditions: 100 kPa, Liquid, Standard Abbe refractometry, x1 = 1

| speed of sound ([1]; 298.15 K) | mass density ([1]; 298.15 K) | speed of sound ([1]; 303.15 K) | mass density ([1]; 303.15 K) | speed of sound ([1]; 308.15 K) | mass density ([1]; 308.15 K) | speed of sound ([1]; 313.15 K) | mass density ([1]; 313.15 K) | speed of sound ([1]; 318.15 K) | mass density ([1]; 318.15 K) | speed of sound ([1]; 323.15 K) | mass density ([1]; 323.15 K) | refractive index ([2]; 298.15 K) | refractive index ([2]; 303.15 K) | refractive index ([2]; 308.15 K) | refractive index ([2]; 313.15 K) | refractive index ([2]; 318.15 K) | refractive index ([2]; 323.15 K) | also measured | Compound |
| --- | --- | --- | --- | --- | --- | --- | --- | --- | --- | --- | --- | --- | --- | --- | --- | --- | --- | --- | --- |
| 1521.5 ± 3.1 m/s | 1039.36 ± 2 kg/m3 | 1502.5 ± 3.1 m/s | 1034.95 ± 2 kg/m3 | 1483.7 ± 3.1 m/s | 1030.55 ± 2 kg/m3 | 1465 ± 3.1 m/s | 1026.14 ± 2 kg/m3 | 1446.5 ± 3.1 m/s | 1021.73 ± 2 kg/m3 | 1428.1 ± 3.1 m/s | 1017.33 ± 1.9 kg/m3 | 1.51119 ± 0.001 | 1.50886 ± 0.001 | 1.5065 ± 0.001 | 1.50415 ± 0.001 | 1.50181 ± 0.001 | 1.49948 ± 0.001 |  | C=CN1CCCC1=O [N-vinylpyrrolidone] |
|  |  |  |  |  |  |  |  |  |  |  |  |  |  |  |  |  |  | speed of sound ([3]; 298.15 K): 1565.1 ± 1.3 m/s; mass density ([3]; 298.15 K): 1198.78 ± 0.39 kg/m3; speed of sound ([3]; 303.15 K): 1553.2 ± 1.2 m/s; mass density ([3]; 303.15 K): 1195.18 ± 0.39 kg/m3; speed of sound ([3]; 308.15 K): 1541.3 ± 1.2 m/s; mass density ([3]; 308.15 K): 1191.6 ± 0.39 kg/m3; speed of sound ([3]; 313.15 K): 1529.7 ± 1.2 m/s; mass density ([3]; 313.15 K): 1188.04 ± 0.38 kg/m3; speed of sound ([3]; 318.15 K): 1518.2 ± 1.2 m/s; mass density ([3]; 318.15 K): 1184.5 ± 0.38 kg/m3; speed of sound ([3]; 323.15 K): 1506.8 ± 1.2 m/s; mass density ([3]; 323.15 K): 1180.98 ± 0.38 kg/m3; refractive index ([4]; 298.15 K): 1.42058 ± 0.00087; refractive index ([4]; 303.15 K): 1.41913 ± 0.00087; refractive index ([4]; 308.15 K): 1.41764 ± 0.00087; refractive index ([4]; 313.15 K): 1.41621 ± 0.00087; refractive index ([4]; 318.15 K): 1.41472 ± 0.00087; refractive index ([4]; 323.15 K): 1.4133 ± 0.00087 | CCCCn1cc[n+](C)c1.F[B-](F)(F)F [1-butyl-3-methylimidazolium tetrafluoroborate] + C=CN1CCCC1=O |
| 1565.1 ± 1.3 m/s | 1198.78 ± 0.39 kg/m3 | 1553.2 ± 1.2 m/s | 1195.18 ± 0.39 kg/m3 | 1541.3 ± 1.2 m/s | 1191.6 ± 0.39 kg/m3 | 1529.7 ± 1.2 m/s | 1188.04 ± 0.38 kg/m3 | 1518.2 ± 1.2 m/s | 1184.5 ± 0.38 kg/m3 | 1506.8 ± 1.2 m/s | 1180.98 ± 0.38 kg/m3 | 1.42058 ± 0.00087 | 1.41913 ± 0.00087 | 1.41764 ± 0.00087 | 1.41621 ± 0.00087 | 1.41472 ± 0.00087 | 1.4133 ± 0.00087 |  | CCCCn1cc[n+](C)c1.F[B-](F)(F)F [1-butyl-3-methylimidazolium tetrafluoroborate] |
